Results reported in patent EP0267994B2, “The use of a metal complex for the manufacture of a composition for treating dental structures” (NATIONAL RESEARCH LABORATORIES, priority 1986, dated 1988).
Several values for one entry are separate records, joined by “and”; a condition that tells them apart may be missing. Equal values may be shown once.

Test: case series: professional polishing of the six lower front teeth of heavy calculus formers with MCC paste
Format: in vivo, human
Description: This is an example of a series of cases of patients who have been confirmed as heavy calculus formers that were treated with the 1:1 metal complex. Generally, the medication utilized was composed of the active ingredient, disodium monocopper(II) citrate (MCC), C.A.S. Registry Number: 65330-59-8, dispersed in an aqueous vehicle comprising aluminum hydroxide, dicalcium phosphate, sorbitol, carboxymethylcellulose and water to form a paste. All of the cases incorporated herewith, as an example, were confirmed diagnostically by a dentist employing the usual examining techniques, i.e., physical examination, etc. The ages of the patients who participated in this example ranged from 35 to 73 years.
All of the patients in this example, prior to their treatment with the 1:1 metal complexes, had self-treated. In self-treating, all patients brushed with a standard dentifrice, flossed, and applied a mixture of baking soda, salt and water to their teeth at least once a day to contain or control calculus build up. Subsequent to and in conjunction with self-treatment, each patient received professionally a standard course of therapy which involved routinely scaling the teeth with a hand pick and an ultrasonic scaler and polishing the teeth mechanically with a mixture of pumice and stannous fluoride via a rubber prophylaxis cup. The patients in this example were treated every 3, 4 or 6 months and the length of standard treatment by the dentist ranged from about 4 years to about 12 years.
At the time of the first examination by the dentist, each patient's mouth was in extremely poor condition, and gross calculus build up was observed; however, no caries or restorations were present.
Subsequent to the standard professional therapy, treatment of all sides of the six lower front teeth with MCC were initiated and performed by the dentist every 3, 4 or 6 months for a total of 10 months. Treatment consisted of first scaling the six lower front teeth with a hand pick and an ultrasonic scaler to debride the teeth and then polishing the teeth mechanically with the above described MCC mixture via a rubber prophylaxis cup. […] The overall appearance of the six lower front teeth was excellent. […] For a more detailed presentation of this example, see the following table.

**Q.** Which “Amt. of Calculus after Application of MCC” value (Calculus Accumulation code 1 = worst condition, 10 = best condition (total absence of accumulation), one value per patient, six lower front teeth, MCC paste every 3, 4 or 6 months for 10 months) does the source give for O=C([O-])CC(O)(CC(=O)[O-])C(=O)O.[Cu+2] [MCC, disodium-monocopper(II) citrate] here?
**A.** +8 (2×) and +9 (2×) and +7

**Q.** What about the “overall appearance of the six lower front teeth” value (after therapy with the copper complex) of the same compound?
**A.** excellent

**Q.** What about the “calculus accumulation on the six lower front teeth” value (all patients, compared to the remaining teeth treated with the standard therapy) of the same compound?
**A.** dramatic reduction in calculus accumulation

**Q.** What about the “side effects or tissue irritation” value (five patients, treatment over 10 months) of the same compound?
**A.** no side effects or tissue irritation

**Q.** What about the taste complaint (two of five patients) of the same compound?
**A.** metallic taste from the MCC mixture which subsided immediately upon rinsing
